Measurements published in patent US20260103461A1, “ESTROGEN RECEPTOR MODULATORS AND USES THEREOF” (Olema Pharmaceuticals, Inc., priority 2022, published 2026).

Biological target: T1, estrogen receptor (Homo sapiens, UniProt P03372)
T1 construct: endogenous in cells; host or cells: ECC-1 cells
T1 sequence (P03372 1-595): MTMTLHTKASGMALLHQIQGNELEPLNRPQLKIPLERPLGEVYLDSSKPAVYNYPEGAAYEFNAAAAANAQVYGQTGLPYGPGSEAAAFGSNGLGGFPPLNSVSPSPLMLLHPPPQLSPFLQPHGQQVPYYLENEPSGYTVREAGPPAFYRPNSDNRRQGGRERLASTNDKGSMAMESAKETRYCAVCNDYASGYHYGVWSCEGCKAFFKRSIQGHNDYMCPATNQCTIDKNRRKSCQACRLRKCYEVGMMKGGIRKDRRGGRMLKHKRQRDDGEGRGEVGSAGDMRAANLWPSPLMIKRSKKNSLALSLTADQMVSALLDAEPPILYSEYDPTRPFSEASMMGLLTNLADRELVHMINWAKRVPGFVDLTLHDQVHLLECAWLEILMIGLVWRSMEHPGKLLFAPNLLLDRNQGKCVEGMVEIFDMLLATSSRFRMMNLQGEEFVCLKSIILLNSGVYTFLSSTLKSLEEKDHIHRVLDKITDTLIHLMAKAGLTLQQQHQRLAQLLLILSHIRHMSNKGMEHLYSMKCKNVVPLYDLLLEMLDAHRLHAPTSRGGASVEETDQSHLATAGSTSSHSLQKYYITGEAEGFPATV
Test: AP (alkaline phosphatase) assay in ECC-1 cells, agonist mode and antagonist mode
Assay type: cell-based
Conditions: 3 days, absence of E2 (agonist mode) or 500 pM E2 (antagonist mode), AP activity normalized to 500 pM E2 alone
Experimental: ECC-1 cells were trypsinized and resuspended in hormone-depleted media and plated at a density of 15 k cells per well into a 96-well plate for at least 4 hours. Cells were treated with test compounds in the absence of E2 (for agonist mode) or in the presence of 500 pM E2 (for antagonist mode) for 3 days and plates were subsequently frozen at −80° C. Thawed plates were incubated with a chromogenic substrate of AP, p-nitrophenyl phosphate (Thermo Fisher Scientific), for 40 minutes at 42° C., and absorbances were read at 405 nm. AP activity was normalized to the activity of 500 pM E2 alone.
The compound numbers correspond to the compound numbers of Table 1 and 2. Compounds having an activity designated as “+” provided estrogen receptor agonism having (i) at least 80% increase in the E2-normalized signal in the AP assay (agonist mode) and (ii) no more than 80% reduction in the E2-normalized signal in the AP assay (antagonist mode). Compounds having an activity designated as “++” provided estrogen receptor antagonism having (i) between 10% and 80% increase in the E2-normalized signal in the AP assay (agonist mode) and (ii) between 10% and 80% reduction in the E2-normalized signal in the AP assay (antagonist mode).

SMILES | Activity (estrogen receptor modulation, agonism and antagonism)
C[C@@H]1Cc2c([nH]c3ccccc23)[C@@H](c2cnc(O[C@@H]3CCN(CCCF)C3)s2)N1CC(F)(F)CO [Example I-28, 2,2-difluoro-3-[(1S,3R)-1-[2-[(3R)-1-(3-fluoropropyl)pyrrolidin-3-yl]oxythiazol-5-yl]-3-methyl-1,3,4,9-tetrahydropyrido[3,4-b]indol-2-yl]propan-1-ol] | +++ (estrogen receptor antagonism (i) with pIC50 greater than 7.5 and at least a 10% reduction in the E2-normalized signal in the AP assay (antagonist mode); and no more than 10% increase in E2-normalized signal in the AP assay (agonist mode))
C[C@@H]1Cc2c([nH]c3ccccc23)[C@@H](c2cnc(O[C@@H]3C[C@H](C)N(CCCF)C3)s2)N1CC(F)(F)CO [Example I-29, 2,2-difluoro-3-((1S,3R)-1-(2-(((3R,5S)-1-(3-fluoropropyl)-5-methylpyrrolidin-3-yl)oxy)thiazol-5-yl)-3-methyl-1,3,4,9-tetrahydro-2H-pyrido[3,4-b]indol-2-yl)propan-1-ol] | + (estrogen receptor agonism having (i) at least 80% increase in the E2-normalized signal in the AP assay (agonist mode) and (ii) no more than 80% reduction in the E2-normalized signal in the AP assay (antagonist mode))
C[C@@H]1C[C@@H](Oc2ncc([C@@H]3c4[nH]c5ccccc5c4C[C@@H](C)N3CC(F)(F)CO)s2)CN1CCCF [Example I-30, 2,2-difluoro-3-[(1S,3R)-1-[2-[(3R,5R)-1-(3-fluoropropyl)-5-methyl-pyrrolidin-3-yl]oxythiazol-5-yl]-3-methyl-1,3,4,9-tetrahydropyrido[3,4-b]indol-2-yl]propan-1-ol] | + (estrogen receptor agonism having (i) at least 80% increase in the E2-normalized signal in the AP assay (agonist mode) and (ii) no more than 80% reduction in the E2-normalized signal in the AP assay (antagonist mode))
C[C@@H]1Cc2c([nH]c3ccccc23)[C@@H](c2cnc(OC3CN(CCCF)C3)s2)N1CC(F)(F)CO [Example I-31, 2,2-difluoro-3-[(1S,3R)-1-[2-[1-(3-fluoropropyl)azetidin-3-yl]oxythiazol-5-yl]-3-methyl-1,3,4,9-tetrahydropyrido[3,4-b]indol-2-yl]propan-1-ol] | ++ (estrogen receptor antagonism having (i) between 10% and 80% increase in the E2-normalized signal in the AP assay (agonist mode) and (ii) between 10% and 80% reduction in the E2-normalized signal in the AP assay (antagonist mode))
C[C@@H]1Cc2c([nH]c3ccccc23)[C@@H](c2cnc(O[C@H]3CN(CCCF)C[C@@H]3F)s2)N1CC(F)(F)CO [Example I-32, 2,2-difluoro-3-[(1S,3R)-1-[2-[(3S,4S)-4-fluoro-1-(3-fluoropropyl)pyrrolidin-3-yl]oxythiazol-5-yl]-3-methyl-1,3,4,9-tetrahydropyrido[3,4-b]indol-2-yl]propan-1-ol] | + (estrogen receptor agonism having (i) at least 80% increase in the E2-normalized signal in the AP assay (agonist mode) and (ii) no more than 80% reduction in the E2-normalized signal in the AP assay (antagonist mode))
C[C@@H]1Cc2c([nH]c3ccccc23)[C@@H](c2cnc(O[C@H]3CN(CCCF)C[C@H]3F)s2)N1CC(F)(F)CO [Example I-33, 2,2-difluoro-3-[(1S,3R)-1-[2-[(3S,4R)-4-fluoro-1-(3-fluoropropyl)pyrrolidin-3-yl]oxythiazol-5-yl]-3-methyl-1,3,4,9-tetrahydropyrido[3,4-b]indol-2-yl]propan-1-ol] | +++ (estrogen receptor antagonism (i) with pIC50 greater than 7.5 and at least a 10% reduction in the E2-normalized signal in the AP assay (antagonist mode); and no more than 10% increase in E2-normalized signal in the AP assay (agonist mode))
C[C@@H]1Cc2c([nH]c3ccccc23)[C@@H](c2cnc(O[C@@H]3CCN(CCCF)[C@H]3C)s2)N1CC(F)(F)CO [Example I-34, 2,2-difluoro-3-[(1S,3R)-1-[2-[(2S,3R)-1-(3-fluoropropyl)-2-methyl-pyrrolidin-3-yl]oxythiazol-5-yl]-3-methyl-1,3,4,9-tetrahydropyrido[3,4-b]indol-2-yl]propan-1-ol] | + (estrogen receptor agonism having (i) at least 80% increase in the E2-normalized signal in the AP assay (agonist mode) and (ii) no more than 80% reduction in the E2-normalized signal in the AP assay (antagonist mode))
C[C@@H]1[C@H](Oc2ncc([C@@H]3c4[nH]c5ccccc5c4C[C@@H](C)N3CC(F)(F)CO)s2)CCN1CCCF [Example I-35, 2,2-difluoro-3-[(1S,3R)-1-[2-[(2R,3R)-1-(3-fluoropropyl)-2-methyl-pyrrolidin-3-yl]oxythiazol-5-yl]-3-methyl-1,3,4,9-tetrahydropyrido[3,4-b]indol-2-yl]propan-1-ol] | + (estrogen receptor agonism having (i) at least 80% increase in the E2-normalized signal in the AP assay (agonist mode) and (ii) no more than 80% reduction in the E2-normalized signal in the AP assay (antagonist mode))
C[C@@H]1Cc2c([nH]c3ccccc23)[C@@H](c2cnc(O[C@@H]3CON(CCCF)C3)s2)N1CC(F)(F)CO [Example I-36, 2,2-difluoro-3-[(1S,3R)-1-[2-[(4S)-2-(3-fluoropropyl)isoxazolidin-4-yl]oxythiazol-5-yl]-3-methyl-1,3,4,9-tetrahydropyrido[3,4-b]indol-2-yl]propan-1-ol] | + (estrogen receptor agonism having (i) at least 80% increase in the E2-normalized signal in the AP assay (agonist mode) and (ii) no more than 80% reduction in the E2-normalized signal in the AP assay (antagonist mode))
C[C@@H]1Cc2c([nH]c3ccccc23)[C@@H](c2cnc(O[C@@H]3CCCN(CCCF)C3)s2)N1CC(F)(F)CO [Example I-37, 2,2-difluoro-3-[(1S,3R)-1-[2-[[(3R)-1-(3-fluoropropyl)-3-piperidyl]oxy]thiazol-5-yl]-3-methyl-1,3,4,9-tetrahydropyrido[3,4-b]indol-2-yl]propan-1-ol] | +++ (estrogen receptor antagonism (i) with pIC50 greater than 7.5 and at least a 10% reduction in the E2-normalized signal in the AP assay (antagonist mode); and no more than 10% increase in E2-normalized signal in the AP assay (agonist mode))
C[C@@H]1Cc2c([nH]c3ccccc23)[C@@H](c2cnc(O[C@H]3CCCN(CCCF)C3)s2)N1CC(F)(F)CO [Example I-38] | + (estrogen receptor agonism having (i) at least 80% increase in the E2-normalized signal in the AP assay (agonist mode) and (ii) no more than 80% reduction in the E2-normalized signal in the AP assay (antagonist mode))
